Laboratory results: patent publication US20100204203A1, “Chemical Compounds 637: Pyridopyrimidinediones as PDE4 Inhibitors” (priority 2007, published 2010)

molecular target: recombinant Human Phosphodiesterase B2 (PDE4B2) (Homo sapiens, UniProt Q07343); assay: Human Phosphodiesterase B2 Radiometric Assay (yttrium silicate SPA beads, [3H]cyclic AMP); type: biochemical; settings: recombinant human PDE4B2, radiometric SPA assay, 8 nM [3H]cyclic AMP; read-out: PDE4B2 pIC50 (converted)
Method in brief: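 Read-out is scintillation proximity: yttrium silicate beads (with 18 mM ZnSO4, added to stop the reaction) bind 5′AMP formed from 8 nM [3H]cAMP over 20 min. Beforehand, compound and 0.1 mg/mL enzyme were preincubated 30 min at 30 °C in pH 7.5 HEPES buffer with MgCl2, EGTA and Brij 35; pIC50 values were curve-fitted.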

Chain of recombinant Human Phosphodiesterase B2 (PDE4B2) (Q07343 1-564 isoform Q07343-2): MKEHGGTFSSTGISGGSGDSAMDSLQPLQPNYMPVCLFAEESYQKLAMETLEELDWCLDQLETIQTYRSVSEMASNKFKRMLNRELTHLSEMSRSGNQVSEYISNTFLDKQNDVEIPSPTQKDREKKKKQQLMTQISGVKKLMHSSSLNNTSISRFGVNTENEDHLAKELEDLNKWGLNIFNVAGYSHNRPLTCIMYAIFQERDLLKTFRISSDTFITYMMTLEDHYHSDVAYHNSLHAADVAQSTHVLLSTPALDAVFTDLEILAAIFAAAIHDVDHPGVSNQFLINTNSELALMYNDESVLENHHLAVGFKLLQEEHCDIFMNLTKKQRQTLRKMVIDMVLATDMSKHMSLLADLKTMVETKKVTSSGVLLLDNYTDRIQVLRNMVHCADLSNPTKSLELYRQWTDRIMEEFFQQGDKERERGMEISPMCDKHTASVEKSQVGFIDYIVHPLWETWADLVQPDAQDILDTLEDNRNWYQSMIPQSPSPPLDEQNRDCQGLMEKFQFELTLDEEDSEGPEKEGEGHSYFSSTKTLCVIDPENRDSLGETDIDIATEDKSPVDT

Compound	IC50
O=c1c2cc(F)cnc2n(-c2cccc(-c3ccc(O)cc3CN3CCOCC3)c2)c(=O)n1[C@H]1CC[C@@H](NCc2cc(Cl)ccc2O)CC1 [Example 250, 3-{cis-4-[(5-Chloro-2-hydroxybenzyl)amino]cyclohexyl}-6-fluoro-1-[4′-hydroxy-2′-(morpholin-4-ylmethyl)biphenyl-3-yl]pyrido[2,3-d]pyrimidine-2,4(1H,3H)-dione]	200 pM
COc1ccc(CN[C@H]2CC[C@@H](n3c(=O)c4cc(F)cnc4n(-c4cccc(-c5ccc(CN6CCN(C(C)C)CC6)cc5)c4)c3=O)CC2)cc1OC(C)=O [Example 257, 5-[({cis-4-[6-Fluoro-1-{4′-[(4-isopropylpiperazin-1-yl)methyl]biphenyl-3-yl}-2,4-dioxo-1,4-dihydropyrido[2,3-d]pyrimidin-3(2H)-yl]cyclohexyl}amino)methyl]-2-methoxyphenyl acetate]	794 pM
O=C(N[C@H]1CC[C@@H](n2c(=O)c3cc(F)cnc3n(CCc3ccccc3)c2=O)CC1)c1cn2cc(F)ccc2n1 [Example 38, 6-fluoro-N-{cis-4-[6-fluoro-2,4-dioxo-1-(2-phenylethyl)-1,4-dihydropyrido[2,3-d]pyrimidin-3(2H)-yl]cyclohexyl}imidazo[1,2-a]pyridine-2-carboxamide]	3160 pM
CC(=O)N1CCN(Cc2cc(O)ccc2-c2cccc(-n3c(=O)n([C@H]4CC[C@@H](NCc5cn6cc(F)ccc6n5)CC4)c(=O)c4cc(F)cnc43)c2)CC1 [Example 328, 1-{2′-[(4-acetylpiperazin-1-yl)methyl]-4′-hydroxybiphenyl-3-yl}-6-fluoro-3-(cis-4-{[(6-fluoroimidazo[1,2-a]pyridin-2-yl)methyl]amino}cyclohexyl)pyrido [2,3-d]pyrimidine-2,4(1H,3H)-dione]	10 pM
CC(=O)n1cc(CN[C@H]2CC[C@@H](n3c(=O)c4cc(F)cnc4n(-c4cccc(-c5ccc(CN6CCCOCC6)cc5)c4)c3=O)CC2)c2ccccc21 [Example 266, 3-(cis-4-{[(1-acetyl-1H-indol-3-yl)methyl]amino}cyclohexyl)-6-fluoro-1-[4′-(1,4-oxazepan-4-ylmethyl)biphenyl-3-yl] pyrido[2,3-d]pyrimidine-2,4(1H,3H)-dione]	1000 pM
Cc1cc(C(=O)N[C@H]2CC[C@@H](n3c(=O)c4cc(F)cnc4n(-c4cccc(-c5ccc(CN6CCN(CC(=O)N(C)C)CC6)cc5)c4)c3=O)CC2)nn1C [Example 216]	12.6 pM
Cc1cccc(C(=O)N[C@H]2CC[C@@H](n3c(=O)c4cc(F)cnc4n(-c4cccc(-c5ccc(CN6CCCNCC6)cc5)c4)c3=O)CC2)n1 [Example 356, N-{cis-4-[1-[4′-(1,4-diazepan-1-ylmethyl)biphenyl-3-yl]-6-fluoro-2,4-dioxo-1,4-dihydropyrido[2,3-d]pyrimidin-3(2H)-yl]cyclohexyl}-6-methylpyridine-2-carboxamide]	63.1 pM
O=C(N[C@H]1CC[C@@H](n2c(=O)c3cc(F)cnc3n(-c3cccc(-c4ccc(C(F)(F)F)cc4)c3)c2=O)CC1)c1cn2cc(F)ccc2n1 [Example 29, 6-fluoro-N-{cis-4-[6-fluoro-2,4-dioxo-1-[4′-(trifluoromethyl)biphenyl-3-yl]-1,4-dihydropyrido[2,3-d]pyrimidin-3(2H)-yl]cyclohexyl}imidazo[1,2-a]pyridine-2-carboxamide.]	79.4 pM
O=c1c2cc(F)cnc2n(-c2cccc(-c3ccc(O)cc3CN3CCSCC3)c2)c(=O)n1[C@H]1CC[C@@H](NCc2cn3cc(F)ccc3n2)CC1 [Example 253, 6-Fluoro-3-(cis-4-{[(6-fluoroimidazo[1,2-c]pyridin-2-yl)methyl]amino}cyclohexyl)-1-[4′-hydroxy-2′-(thiomorpholin-4-ylmethyl)biphenyl-3-yl]pyrido[2,3-d]pyrimidine-2,4(1H,3H)-dione]	15.8 pM
Cc1ccc2nc(CN[C@H]3CC[C@@H](n4c(=O)c5cc(F)cnc5n(-c5cccc(-c6ccc(O)cc6CN6CCOCC6)c5)c4=O)CC3)cn2c1 [Example 334, 6-fluoro-1-[4′-hydroxy-2′-(morpholin-4-ylmethyl)biphenyl-3-yl]-3-(cis-4-{[(6-methylimidazo[1,2-a]pyridin-2-yl)methyl]amino}cyclohexyl)pyrido[2,3-d]pyrimidine-2,4 (1H,3H)-dione]	63.1 pM
CC(=O)N[C@H]1CC[C@@H](n2c(=O)c3cc(F)cnc3n(-c3cccc(-c4ccccc4)c3)c2=O)CC1 [Example 65, N-[cis-4-(1-biphenyl-3-yl-6-fluoro-2,4-dioxo-1,4-dihydropyrido[2,3-d]pyrimidin-3(2H)-yl)cyclohexyl]acetamide]	398 pM
O=c1c2cc(F)cnc2n(-c2cccc(-c3ccc(O)cc3CN3CCC[C@@H]3CO)c2)c(=O)n1[C@H]1CC[C@@H](NCc2cn3cc(F)ccc3n2)CC1 [Example 332, 6-fluoro-3-(cis-4-{[(6-fluoroimidazo[1,2-a]pyridin-2-yl)methyl]amino}cyclohexyl)-1-(4′-hydroxy-2′-{[(2R)-2-(hydroxymethyl)pyrrolidin-1-yl]methyl}biphenyl-3-yl)pyrido[2,3-d]pyrimidine-2,4(1H,3H)-dione]	50.1 pM
CC(C)N1CCN(Cc2ccc(-c3cccc(-n4c(=O)n([C@H]5CC[C@@H](NC(=O)c6ccsc6)CC5)c(=O)c5cc(F)cnc54)c3)cc2)CC1 [Example 245, N-{cis-4-[6-fluoro-1-{4′-[(4-isopropylpiperazin-1-yl)methyl]biphenyl-3-yl}-2,4-dioxo-1,4-di-hydropyrido[2,3-d]pyrimidin-3(2H)-yl]cyclohexyl}thiophene-3-carboxamide]	20 pM

Next, values leading:

IC50	Compound
15.8 pM	CC(=O)N1CCN(Cc2ccc(-c3cccc(-n4c(=O)n([C@H]5CC[C@@H](NC(=O)c6cc(C)n(C)n6)CC5)c(=O)c5cc(F)cnc54)c3)cc2)CC1 [Example 213, N-{cis-4-[1-{4′-[(4-acetylpiperazin-1-yl)methyl]biphenyl-3-yl}-6-fluoro-2,4-dioxo-1,4-dihydropyrido[2,3-d]pyrimidin-3(2H)-yl]cyclohexyl}-1,5-dimethyl-1H-pyrazole-3-carboxamide]
6310 pM	N[C@H]1CC[C@@H](n2c(=O)c3cc(F)cnc3n(-c3cccc(-c4ccc(O)cc4CN4CCNC(=O)CC4)c3)c2=O)CC1 [Example 369, 3-(cis-4-aminocyclohexyl)-6-fluoro-1-{4′-hydroxy-2′-[(5-oxo-1,4-diazepan-1-yl)methyl]biphenyl-3-yl}pyrido[2,3-d]pyrimidine-2,4(1H,3H)-dione]
10 pM	O=C(N[C@H]1CC[C@@H](n2c(=O)c3cc(F)cnc3n(-c3cccc(-c4ccc(CN5CCC(N6CCCCC6)CC5)cc4)c3)c2=O)CC1)c1cn2c(n1)CCCC2 [Example 223, N-{cis-4-[1-[4′-(1,4′-bipiperidin-1′-ylmethyl)biphenyl-3-yl]-6-fluoro-2,4-dioxo-1,4-dihydropyrido[2,3-d]pyrimidin-3(2H)-yl]cyclohexyl}-5,6,7,8-tetrahydroimidazo[1,2-a]pyridine-2-carboxamide]
631 pM	CN(C)CC(=O)N[C@H]1CC[C@@H](n2c(=O)c3cc(F)cnc3n(-c3cccc(-c4ccc(CN5CCCN(C)CC5)cc4)c3)c2=O)CC1 [Example 287, N-{cis-4-[6-fluoro-1-{4′-[(4-methyl-1,4-diazepan-1-yl)methyl]biphenyl-3-yl}-2,4-dioxo-1,4-dihydropyrido[2,3-d]pyrimidin-3(2H)-yl]cyclohexyl}-N^2,N^2-dimethylglycinamide]
6.31 pM	O=C(N[C@H]1CC[C@@H](n2c(=O)c3cc(F)cnc3n(-c3cccc(-c4ccc(OCCCN5CCOCC5)cc4)c3)c2=O)CC1)c1cn2cc(F)ccc2n1 [Example 81, 6-fluoro-N-{cis-4-[6-fluoro-1-[4′-(3-morpholin-4-ylpropoxy)biphenyl-3-yl]-2,4-dioxo-1,4-dihydropyrido[2,3-d]pyrimidin-3(2H)-yl]cyclohexyl}imidazo[1,2-a]pyridine-2-carboxamide]
158 pM	COC[C@H](C)N(C)Cc1cc(O)ccc1-c1cccc(-n2c(=O)n([C@H]3CC[C@@H](NCc4cn5cc(F)ccc5n4)CC3)c(=O)c3cc(F)cnc32)c1 [Example 315, 6-fluoro-3-(cis-4-{[(6-fluoroimidazo[1,2-a]pyridin-2-yl)methyl]amino}cyclohexyl)-1-(4′-hydroxy-2′-{[[(1S)-2-methoxy-1-methylethyl](methyl)amino]methyl}biphenyl-3-yl)pyrido[2,3-d]pyrimidine-2,4(1H,3H)-dione]
10 pM	Cc1nc(C(=O)N[C@H]2CC[C@@H](n3c(=O)c4cc(F)cnc4n(-c4cccc(-c5ccc(CN6CCN(C(C)C)CC6)cc5)c4)c3=O)CC2)cs1 [Example 244, N-{cis-4-[6-fluoro-1-{4′-[(4-isopropylpiperazin-1-yl)methyl]biphenyl-3-yl}-2,4-dioxo-1,4-di-hydropyrido[2,3-d]pyrimidin-3(2H)-yl]cyclohexyl}-2-methyl-1,3-thiazole-4-carboxamide]
7940 pM	N[C@H]1CC[C@@H](n2c(=O)c3cc(F)cnc3n(-c3cccc(C(=O)O)c3)c2=O)CC1 [Example 91, 3-[3-(cis-4-aminocyclohexyl)-6-fluoro-2,4-dioxo-3,4-dihydropyrido[2,3-d]pyrimidin-1(2H)-yl]benzoic acid]
100 pM	CN(CCc1ccc(-c2cccc(-n3c(=O)n([C@H]4CC[C@@H](NC(=O)c5cn6cc(F)ccc6n5)CC4)c(=O)c4cc(F)cnc43)c2)cc1)C(C)(C)C [Example 101, N-{cis-4-[1-(4′-{2-[tert-butyl(methyl)amino]ethyl}biphenyl-3-yl)-6-fluoro-2,4-dioxo-1,4-dihydropyrido[2,3-d]pyrimidin-3(2H)-yl]cyclohexyl}-6-fluoroimidazo[1,2-a]pyridine-2-carboxamide]
15.8 pM	CCN(CC)CCN(C)Cc1ccc(-c2cccc(-n3c(=O)n([C@H]4CC[C@@H](NC(=O)c5cn6c(n5)CCCC6)CC4)c(=O)c4cc(F)cnc43)c2)cc1 [Example 225, N-{cis-4-[1-(4′-{[[2-(diethylamino)ethyl](methyl)amino]methyl}biphenyl-3-yl)-6-fluoro-2,4-dioxo-1,4-dihydropyrido[2,3-d]pyrimidin-3(2H)-yl]cyclohexyl}-5,6,7,8-tetrahydroimidazo[1,2-a]pyridine-2-carboxamide]
